According to ChEMBL document CHEMBL1201862, “PubChem BioAssay data set” (2004):
The source made the active and inactive calls.

Assays:
[1] = target: T1, Streptokinase A (Streptococcus pyogenes serotype M1, UniProt P10520); test: viability-normalized secreted streptokinase activity reduction – plasminogen activation absorbance, OD405, dose response (AID 1914); type: functional, Streptococcus pyogenes M1 GAS;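 also: secreted streptokinase activity via plasminogen activation per viability signal from cell pellet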
T1 sequence (P10520 whole entry): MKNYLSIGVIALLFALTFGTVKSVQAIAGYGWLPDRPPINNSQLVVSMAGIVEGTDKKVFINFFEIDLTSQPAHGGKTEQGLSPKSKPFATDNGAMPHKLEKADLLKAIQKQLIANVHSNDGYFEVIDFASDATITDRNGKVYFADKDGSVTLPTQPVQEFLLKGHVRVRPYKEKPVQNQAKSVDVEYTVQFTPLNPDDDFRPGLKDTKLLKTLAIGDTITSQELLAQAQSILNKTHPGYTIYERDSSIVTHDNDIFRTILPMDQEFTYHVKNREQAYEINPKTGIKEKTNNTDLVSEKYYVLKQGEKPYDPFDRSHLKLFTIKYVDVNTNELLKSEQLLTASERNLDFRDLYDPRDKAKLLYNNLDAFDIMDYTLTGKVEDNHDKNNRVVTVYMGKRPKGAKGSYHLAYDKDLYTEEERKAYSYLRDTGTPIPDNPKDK

[2] = target: Prothrombin (Bos taurus, UniProt P00735); test: thrombin protease inhibitors – biochemical, fluorescence polarization, uHTS hits, dose response (AID 602369); type: functional
[3] = target: 72 kDa type IV collagenase (Homo sapiens, UniProt P08253); test: Dose Response validation of uHTS RPN11 inhibitor hits using a MMP-2 Fluorescence assay.; type: functional
Sequence of 72 kDa type IV collagenase (P08253 whole entry): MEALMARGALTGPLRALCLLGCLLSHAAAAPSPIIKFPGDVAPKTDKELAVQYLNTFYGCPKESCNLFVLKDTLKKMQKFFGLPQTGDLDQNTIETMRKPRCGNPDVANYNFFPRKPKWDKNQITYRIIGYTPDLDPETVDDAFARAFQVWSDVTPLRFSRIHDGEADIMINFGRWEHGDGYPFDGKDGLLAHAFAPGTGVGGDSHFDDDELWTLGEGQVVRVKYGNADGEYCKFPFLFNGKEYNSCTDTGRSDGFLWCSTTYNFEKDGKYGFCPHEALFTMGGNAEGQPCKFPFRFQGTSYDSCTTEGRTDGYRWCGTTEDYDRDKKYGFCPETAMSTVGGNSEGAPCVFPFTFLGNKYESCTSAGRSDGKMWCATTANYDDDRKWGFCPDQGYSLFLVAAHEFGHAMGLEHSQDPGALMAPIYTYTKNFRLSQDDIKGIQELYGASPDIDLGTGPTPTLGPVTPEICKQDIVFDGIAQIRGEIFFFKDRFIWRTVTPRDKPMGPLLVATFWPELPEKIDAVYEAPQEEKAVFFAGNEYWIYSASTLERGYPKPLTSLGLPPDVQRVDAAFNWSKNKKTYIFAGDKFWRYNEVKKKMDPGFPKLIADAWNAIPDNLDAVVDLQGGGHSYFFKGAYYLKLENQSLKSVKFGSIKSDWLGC

[4] = tested on: Streptococcus sp. 'group A'; test: Streptococcus pyogenes SK(-)GAS viability under kanamycin – luminescence, BacTiterGlo, confirmation, counter-screen for streptokinase expression inhibitor project, dose response (AID 1900); type: functional, organism-based
[5] = target: 26S proteasome non-ATPase regulatory subunit 14 (Homo sapiens, UniProt O00487); test: inhibition of proteasome subunit RPN11 – biochemical, fluorescence polarization, uHTS hits, confirmation (AID 602368); type: functional
Sequence of 26S proteasome non-ATPase regulatory subunit 14 (O00487 whole entry): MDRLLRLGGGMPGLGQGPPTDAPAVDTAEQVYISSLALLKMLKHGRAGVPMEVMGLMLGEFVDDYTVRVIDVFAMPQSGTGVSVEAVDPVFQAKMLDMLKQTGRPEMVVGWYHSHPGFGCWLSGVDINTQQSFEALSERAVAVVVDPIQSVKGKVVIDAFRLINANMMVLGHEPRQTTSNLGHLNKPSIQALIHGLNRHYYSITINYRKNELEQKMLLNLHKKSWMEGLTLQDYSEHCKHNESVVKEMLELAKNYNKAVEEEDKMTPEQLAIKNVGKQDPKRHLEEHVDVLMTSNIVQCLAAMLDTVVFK

[6] = tested on: Streptococcus; test: GAS UMAA2166 growth inhibition – luminescence, BacTiterGlo, counter-screen for streptokinase expression inhibitor project, dose response (AID 1915); type: functional, organism-based;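 also: potency for reduction of bacterial viability or growth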
[7] = cAMP pathway inhibition in counterscreen cell line – TR-FRET cAMP detection, counter-screen for MC4R biased antagonist project, dose response (AID 602305); type: functional, cell-based;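 also: U2OS cells stimulated with forskolin near its EC80 as the cAMP inducer; potency is for inhibition of forskolin-stimulated cAMP signaling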
[8] = target: Melanocortin receptor 4 (Homo sapiens, UniProt P32245); test: inhibitors of MC4R cAMP signaling – cell-based, TR-FRET, biased antagonists, dose response (AID 602298); type: functional;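 also: antagonist potency against agonist-stimulated cAMP production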
Sequence of Melanocortin receptor 4 (P32245 whole entry): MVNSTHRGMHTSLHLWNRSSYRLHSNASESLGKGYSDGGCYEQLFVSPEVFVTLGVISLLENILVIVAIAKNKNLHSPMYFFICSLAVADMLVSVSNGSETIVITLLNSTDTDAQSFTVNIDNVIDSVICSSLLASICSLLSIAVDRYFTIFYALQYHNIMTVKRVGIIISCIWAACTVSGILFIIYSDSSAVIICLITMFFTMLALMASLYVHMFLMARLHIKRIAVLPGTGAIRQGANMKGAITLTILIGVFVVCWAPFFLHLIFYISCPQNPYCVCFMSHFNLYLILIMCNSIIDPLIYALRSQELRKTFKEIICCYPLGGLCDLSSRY

[9] = target: T2, Neuropeptides B/W receptor type 1 (Homo sapiens, UniProt P48145); test: human NPBW1 receptor blockade, IC50 – cell-based, fluorescence, dose response, set 6, late-stage follow-up (AID 588583); type: functional
T2 sequence (P48145 whole entry): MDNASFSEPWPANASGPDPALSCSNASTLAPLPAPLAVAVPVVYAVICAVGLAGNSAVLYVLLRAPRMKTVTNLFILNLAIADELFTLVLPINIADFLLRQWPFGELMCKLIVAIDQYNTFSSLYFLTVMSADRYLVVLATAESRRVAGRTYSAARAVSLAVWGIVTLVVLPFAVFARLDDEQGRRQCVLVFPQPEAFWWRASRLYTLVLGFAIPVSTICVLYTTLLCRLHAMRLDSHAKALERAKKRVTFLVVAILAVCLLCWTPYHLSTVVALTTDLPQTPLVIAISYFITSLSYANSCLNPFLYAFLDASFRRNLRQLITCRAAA

[10] = target: Melanin-concentrating hormone receptor 1 (Homo sapiens, UniProt Q99705); test: Late-stage fluorescence-based counterscreen for antagonists of the G-protein coupled receptor 7 (GPR7): cell-based dose response assay to identify antagonists of the melanin-concentrating hormone receptor 1 (MCHR1) Set 6.; type: functional
Sequence of Melanin-concentrating hormone receptor 1 (Q99705 whole entry): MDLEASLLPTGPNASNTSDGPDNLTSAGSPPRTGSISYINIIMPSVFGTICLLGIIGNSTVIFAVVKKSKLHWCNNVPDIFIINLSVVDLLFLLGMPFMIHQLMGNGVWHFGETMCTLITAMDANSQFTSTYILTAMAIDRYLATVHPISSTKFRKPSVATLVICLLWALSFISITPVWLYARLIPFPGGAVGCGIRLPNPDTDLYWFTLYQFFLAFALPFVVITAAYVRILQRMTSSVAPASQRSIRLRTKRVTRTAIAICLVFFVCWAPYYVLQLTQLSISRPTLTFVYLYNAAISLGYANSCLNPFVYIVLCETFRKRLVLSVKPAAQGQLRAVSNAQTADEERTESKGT

[11] = target: Aurora kinase B (Homo sapiens, UniProt Q96GD4); type: functional
Sequence of Aurora kinase B (Q96GD4 whole entry): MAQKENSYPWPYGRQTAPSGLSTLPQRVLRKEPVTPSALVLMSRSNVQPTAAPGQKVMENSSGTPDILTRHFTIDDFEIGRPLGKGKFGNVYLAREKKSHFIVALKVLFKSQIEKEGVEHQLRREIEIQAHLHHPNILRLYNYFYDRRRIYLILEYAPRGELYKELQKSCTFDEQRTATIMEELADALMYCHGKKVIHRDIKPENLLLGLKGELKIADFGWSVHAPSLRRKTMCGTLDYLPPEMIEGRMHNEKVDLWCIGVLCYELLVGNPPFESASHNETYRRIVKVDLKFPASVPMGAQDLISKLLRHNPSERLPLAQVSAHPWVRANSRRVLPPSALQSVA

O=C1NC(=S)N(C2CCCCC2)C(=O)/C1=C/NNC(=O)c1ccccc1
EC50 [1]: > 150 µM (not active)
IC50 [2]: 36.1 µM (active)
IC50 [3]: > 100 µM (inactive)
EC50 [4]: 0.519 µM (active)
IC50 [5]: 40.3 µM (active)
EC50 [6]: 8.22 µM (active)

CCOC(=O)c1cnc2ccc(OCC)cc2c1NCc1ccccc1
IC50 [7]: > 64.6 µM (inactive)
IC50 [8]: > 64.6 µM (inactive)

N#CC(c1ccccn1)c1c(Br)cnn(Cc2cccc3ccccc23)c1=O (stereo unspecified)
IC50 [9]: 0.8 µM (active)
IC50 [10]: 0.8 µM (active)

Cc1cccc(Nc2nccc(Nc3ccccc3C(=O)O)n2)c1
Ki [11]: 0.00126 µM (active)
